Measurements reported in patent publication US20120014956A1, “METHODS AND COMPOSITIONS FOR PREDICTING RESPONSIVENESS TO TREATMENT WITH TNF-ALPHA INHIBITOR” (priority 2010, published 2012).

System: patients with early RA
Experiment: OPTIMA genetic substudy: ACR20/50/70 response at Week 26
Assay type: in vivo, human
Conditions: for ACR50, % / ACR50, n/N: 26 weeks; for ACR20 Response Rates at Week 26 (title; column head ACR70), % subjects / ACR20 Response Rates at Week 26 (title; column head ACR70), n/N subjects: Table 6a; for ACR20 Response Rates at Week 26 (title; column head ACR70), % subjects / ACR20 Response Rates at Week 26 (title; column head ACR70), n/N subjects / ACR50 response rate, % subjects / ACR50 response, n/N subjects / ACR70 response rate, % subjects / ACR70 response, n/N subjects / ACR20 response rate, % subjects / ACR20 response, n/N subjects: Week 26
Source text: The objective of the study was to prospectively analyze the association of 3 genetic risk factors (HLA-DRB1 shared epitope (SE), FcγRIIb, and IL-4R) for severe RA with clinical disease activity after 26 weeks of combination therapy with adalimumab (ADA) and methotrexate (MTX) or MTX monotherapy in a substudy of OPTIMA (A Multicentre, Randomized, Double Period, Double-Blind Study to Determine the Optimal Protocol for Treatment Initiation With Methotrexate and Adalimumab Combination Therapy in Patients With Early Rheumatoid Arthritis).
OPTIMA is an ongoing 78-week study with 26- and 52-week periods. Eligible patients had RA<1 year (1987-revised ACR classification), 28-joint Disease Activity Score (DAS28)>3.2, ≧6 swollen joints […], and ≧8 tender joints (SSJC66≧8). Patients had elevated erythrocyte sedimentation rate (ESR)≧28 mm/h or C-reactive protein (CRP)≧1.5 mg/dL and ≧1 of the following: >1 erosion, rheumatoid-factor positive (RF+), or anti-cyclic citrullinated peptide antibody positive (anti-CCP+). Exclusion criteria included prior exposure to systemic anti-TNF therapies, treatment with MTX or >2 disease-modifying anti-rheumatic drugs (DMARDs), other acute inflammatory joint diseases, or steroidal or surgical treatment within 4 weeks or 2 months, respectively.
In Period 2, those combination therapy responders, e.g., meeting DAS28 low disease activity (LDA) criteria (DAS28<3.2), were re-randomized 1:1 to remain on ADA+MTX or to “step down” to PBO+MTX for Weeks 26-78. In the initial PBO+MTX monotherapy group, subjects who achieved DAS28 LDA after Period 1 remained blinded on PBO+MTX for Period 2. […] Genetic data were associated with Week-26 clinical response.
For clinical assessment, the percentage of subjects achieving a 20%, 50%, and 70% improvement from baseline ACR scores was determined after Week 26 using a non-responder imputation approach. DAS28(CRP)^1 scores were evaluated at Week 26. The proportion of subjects achieving LDA (DAS28<3.2) and remission criteria (DAS28<2.6) was determined using a non-responder imputation approach.
For statistical analyses, Allele distribution between treatment groups was evaluated using the chi-square test, or Fisher's exact test in cases where data were sparse. The chi-square test was used to compare the proportion of subject achieving ACR20/50/70 and DAS28 LDA (<3.2) or remission (<2.6) within and between treatment groups.
MTX-naïve patients were randomized 1:1 to ADA (40 mg eow)+MTX (titrated to 20 mg/wk by Week 8) or placebo (PBO)+MTX for the first 26 weeks.
The percentage of subjects achieving a 50% improvement in the ACR score from baseline was determined at Week 26 using a non-responder imputation approach. The percentage of subjects achieving DAS28(CRP) remission (DAS28<2.6) was determined at Week 26 using a non-responder imputation approach.
Allele distribution between treatment groups was evaluated using the chi-square test, or Fisher's exact test in cases where data were sparse. Multivariate logistic regression was used to evaluate the effect of treatment, individual alleles, the interaction between treatment and genetic components, and baseline demographics and disease characteristics on clinical responses at 26 weeks.
MTX-naïve pts ≧18 years old with RA<1 year and active disease (DAS28>3.2, ESR≧28 mm/h or CRP≧1.5 mg/dL), and either >1 erosions, RF+, or anti-CCP+ were randomized to ADA+MTX (N=515) or PBO+MTX (N=517) for 26 wks. This analysis presents clinical outcomes at 26 weeks by HLA-DRB1 SE copy number (0×, 1×, or 2×), IL-4R I50V (AA, AG, or GG), and FcγRIIb I232T (TT, TC, CC) alleles. Non-responder imputation was used to calculate the percent of patients achieving ACR20/50/70 and DAS28 low disease activity (LDA, DAS28<3.2) and remission (DAS28<2.6). Multiple logistic regression was used to assess the influence of potential confounding baseline variables. […]

[1] = HLA-DRB1 SE 0 copies, non-responder imputation

CN(Cc1cnc2nc(N)nc(N)c2n1)c1ccc(C(=O)N[C@@H](CCC(=O)O)C(=O)O)cc1 [PBO + MTX, methotrexate]
ACR50, % (IL-4R AA, HLA-DRB1 SE copy # 0): (44%)
ACR50, n/N (IL-4R AA, HLA-DRB1 SE copy # 0): 15/34
ACR50, % (IL-4R AA, HLA-DRB1 SE copy # 1): (41%)
ACR50, n/N (IL-4R AA, HLA-DRB1 SE copy # 1): 23/56
ACR50, % (IL-4R AA, HLA-DRB1 SE copy # 2): (30%)
ACR50, n/N (IL-4R AA, HLA-DRB1 SE copy # 2): 7/23
ACR50, % (IL-4R AG, HLA-DRB1 SE copy # 0): (42%)
ACR50, n/N (IL-4R AG, HLA-DRB1 SE copy # 0): 33/78
ACR50, % (IL-4R AG, HLA-DRB1 SE copy # 1): (37%)
ACR50, n/N (IL-4R AG, HLA-DRB1 SE copy # 1): 34/92
ACR50, % (IL-4R AG, HLA-DRB1 SE copy # 2): (38%)
ACR50, n/N (IL-4R AG, HLA-DRB1 SE copy # 2): 12/32
ACR50, % (IL-4R GG, HLA-DRB1 SE copy # 0): (47%)
ACR50, n/N (IL-4R GG, HLA-DRB1 SE copy # 0): 18/38
ACR50, % (IL-4R GG, HLA-DRB1 SE copy # 1): (40%)
ACR50, n/N (IL-4R GG, HLA-DRB1 SE copy # 1): 14/35
ACR50, % (IL-4R GG, HLA-DRB1 SE copy # 2): (50%)
ACR50, n/N (IL-4R GG, HLA-DRB1 SE copy # 2): 1/2
association of FcγRIIb with 26-week response, multiple logistic regression (ADA+MTX: FcγRIIb-CC with ACR70 and DAS28 remission): failed to show a significant association
association of IL-4R with 26-week response, multiple logistic regression (IL-4R alone): failed to show a significant association
association of SE copy number with 26-week response, multiple logistic regression (PBO+MTX: ACR20 and ACR50, ADA+MTX: ACR20/50/70 and DAS28 LDA): significant negative effect
ACR20 Response Rates at Week 26 (title; column head ACR70), % subjects (IL-4R AA): (13%)
ACR20 Response Rates at Week 26 (title; column head ACR70), n/N subjects (IL-4R AA): 17/130
ACR20 Response Rates at Week 26 (title; column head ACR70), % subjects (IL-4R AG): (19%)
ACR20 Response Rates at Week 26 (title; column head ACR70), n/N subjects (IL-4R AG): 42/233
ACR20 Response Rates at Week 26 (title; column head ACR70), % subjects (IL-4R GG): (18%)
ACR20 Response Rates at Week 26 (title; column head ACR70), n/N subjects (IL-4R GG): 16/88
ACR50 response rate, % subjects (HLA-DRB1 SE 0 copies): (40%)
ACR50 response, n/N subjects (HLA-DRB1 SE 0 copies): 66/167
ACR70 response rate, % subjects (HLA-DRB1 SE 0 copies): (19%)
ACR70 response, n/N subjects (HLA-DRB1 SE 0 copies): 31/157
ACR50 response rate, % subjects (HLA-DRB1 SE 0 copies, listed as MTX): 40%
ACR20 response rate, % subjects [1]: (63%)
ACR20 response, n/N subjects [1]: 105/167
ACR20 response rate, % subjects (HLA-DRB1 SE 1 copy): (54%)
ACR20 response, n/N subjects (HLA-DRB1 SE 1 copy): 115/215
ACR50 response rate, % subjects (HLA-DRB1 SE 1 copy): (33%)
ACR50 response, n/N subjects (HLA-DRB1 SE 1 copy): 71/215
ACR70 response rate, % subjects (HLA-DRB1 SE 1 copy): (17%)
ACR70 response, n/N subjects (HLA-DRB1 SE 1 copy): 36/215
ACR50 response rate, % subjects (HLA-DRB1 SE 1 copy, listed as MTX): 33%
ACR20 response rate, % subjects (HLA-DRB1 SE 2 copies): (52%)
